Where two headings read alike, the source gives them in different places.
How the values were obtained:
Type in all cases: cell-based
human M1 receptor = molecular target: T1, human M1 receptor (Homo sapiens, UniProt P11229); assay: In vitro functional assay of muscarinic acetylcholine receptor activity (aequorin calcium flux, antagonist mode vs EC80 acetylcholine), M1
T1 sequence (P11229 1-460): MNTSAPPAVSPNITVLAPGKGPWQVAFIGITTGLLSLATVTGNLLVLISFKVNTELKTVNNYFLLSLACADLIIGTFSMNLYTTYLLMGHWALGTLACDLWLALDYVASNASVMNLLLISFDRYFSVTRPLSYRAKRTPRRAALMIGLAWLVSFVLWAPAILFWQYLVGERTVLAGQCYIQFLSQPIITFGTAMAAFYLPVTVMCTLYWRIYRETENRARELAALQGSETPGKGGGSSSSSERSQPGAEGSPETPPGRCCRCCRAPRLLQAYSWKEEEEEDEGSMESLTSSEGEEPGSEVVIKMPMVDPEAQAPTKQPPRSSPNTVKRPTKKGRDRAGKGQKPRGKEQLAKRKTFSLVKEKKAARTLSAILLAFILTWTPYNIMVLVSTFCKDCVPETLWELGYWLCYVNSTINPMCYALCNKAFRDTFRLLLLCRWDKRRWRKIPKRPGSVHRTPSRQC
In short: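 CHO-K1 cells stably co-expressing human M1 and aequorin were loaded with 5 uM coelenterazine h for 4 h at room temperature in the dark. IC50 came from the drop in luminescence.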

M3 = M3 (Homo sapiens, UniProt P20309); assay: In vitro functional assay of muscarinic acetylcholine receptor activity, M3; conditions: antagonist IC50 at M3; read-out: M3 IC50
Sequence of M3 (P20309 whole entry): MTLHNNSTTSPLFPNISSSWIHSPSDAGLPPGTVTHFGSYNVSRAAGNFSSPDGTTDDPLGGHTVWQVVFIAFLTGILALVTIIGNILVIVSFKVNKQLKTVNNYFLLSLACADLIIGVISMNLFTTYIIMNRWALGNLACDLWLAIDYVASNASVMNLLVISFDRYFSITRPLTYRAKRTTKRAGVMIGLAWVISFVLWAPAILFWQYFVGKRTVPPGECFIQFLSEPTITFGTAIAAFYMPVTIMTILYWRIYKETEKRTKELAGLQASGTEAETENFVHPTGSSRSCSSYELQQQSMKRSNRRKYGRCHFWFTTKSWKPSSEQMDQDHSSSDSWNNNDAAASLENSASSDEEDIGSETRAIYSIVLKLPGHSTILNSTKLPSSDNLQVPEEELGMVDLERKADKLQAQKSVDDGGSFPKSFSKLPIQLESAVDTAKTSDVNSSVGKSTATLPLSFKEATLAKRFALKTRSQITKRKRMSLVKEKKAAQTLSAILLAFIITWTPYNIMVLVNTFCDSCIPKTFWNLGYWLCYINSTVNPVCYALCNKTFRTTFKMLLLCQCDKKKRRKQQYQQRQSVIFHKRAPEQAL

M2 = molecular target: T2, M2 (Homo sapiens, UniProt P08172); assay: In vitro functional assay of muscarinic acetylcholine receptor activity, M2
T2 sequence (P08172 1-466): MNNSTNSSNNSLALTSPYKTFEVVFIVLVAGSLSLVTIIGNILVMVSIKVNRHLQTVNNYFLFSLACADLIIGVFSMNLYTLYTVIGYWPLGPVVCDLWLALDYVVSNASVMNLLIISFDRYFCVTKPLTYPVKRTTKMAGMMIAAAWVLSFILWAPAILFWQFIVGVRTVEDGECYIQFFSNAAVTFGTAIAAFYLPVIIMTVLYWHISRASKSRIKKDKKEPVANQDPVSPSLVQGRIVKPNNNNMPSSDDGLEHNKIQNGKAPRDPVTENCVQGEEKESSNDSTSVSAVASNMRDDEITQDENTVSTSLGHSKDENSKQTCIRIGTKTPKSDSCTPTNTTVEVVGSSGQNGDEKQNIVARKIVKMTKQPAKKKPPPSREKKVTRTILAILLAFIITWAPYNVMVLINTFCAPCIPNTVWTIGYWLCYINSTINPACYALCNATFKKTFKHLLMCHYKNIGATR

[1] = antagonist IC50 at M2, read-out: M2 IC50
[2] = CHO-K1 cells stably expressing human M1 receptor with Aequorin, decrease in EC80 acetylcholine response, read-out: M1 IC50

SMILES: COc1cnc2cccc(CNCC(=O)N3C[C@H]4CC[C@@H](C3)N4c3ccncc3F)c2c1 [Example 71, 1-((1R,5S)-8-(3-fluoropyridin-4-yl)-3,8-diazabicyclo[3.2.1]octan-3-yl)-2-(((3-methoxyquinolin-5-yl)methyl)amino)ethan-1-one]
- IC50 (human M1 receptor): 100 to 1000 nM
- IC50 (M3): 1000 to 10000 nM
- IC50 (M2): 100 to 1000 nM

SMILES: N#Cc1ccc(N2CC3CCC(C2)N3C(=O)CCNCc2cccc3ncsc23)nc1 [Example 160, 6-[8-(3-{[(1,3-benzothiazol-7-yl)methyl]amino}propanoyl)-3,8-diazabicyclo[3.2.1]octan-3-yl]pyridine-3-carbonitrile]
- IC50 (human M1 receptor): 100 to 1000 nM
- IC50 (M3): > 10000 nM
- IC50 (M2; [1]): 1000 to 10000 nM

SMILES: Cc1nc2cccc(S(=O)(=O)CCC(=O)N3C[C@H]4CC[C@@H](C3)N4c3ccncc3F)c2o1 [Example 103, 1-((1R,5S)-8-(3-fluoropyridin-4-yl)-3,8-diazabicyclo[3.2.1]octan-3-yl)-3-((2-methylbenzo[d]oxazol-7-yl)sulfonyl)propan-1-one]
- IC50 (human M1 receptor): < 100 nM
- IC50 (M3): 1000 to 10000 nM
- IC50 (M2): 100 to 1000 nM

SMILES: N#Cc1ccc(N2C3CCC2CN(C(=O)C2CC(=Cc4cccc5ncccc45)C2)C3)nc1 (stereo not drawn) [Example 194, 6-(3-{3-[(quinolin-5-yl)methylidene]cyclobutanecarbonyl}-3,8-diazabicyclo[3.2.1]octan-8-yl)pyridine-3-carbonitrile]
- IC50 (human M1 receptor): < 100 nM
- IC50 (M3): 1000 to 10000 nM
- IC50 (M2): 100 to 1000 nM

SMILES: N#Cc1ccc(N2C3CCC2CN(C(=O)C2CC(NCc4cccc5ncsc45)C2)C3)nc1 (stereo not drawn) [Example 30, 6-[3-(3-{[(1,3-benzothiazol-7-yl)methyl]amino}cyclobutanecarbonyl)-3,8-diazabicyclo[3.2.1]octan-8-yl]pyridine-3-carbonitrile]
- IC50 (human M1 receptor): 100 to 1000 nM
- IC50 (M3): > 10000 nM
- IC50 (M2; [1]): 1000 to 10000 nM

SMILES: COc1cnc2cccc(COCCC(=O)N3C[C@H]4CC[C@@H](C3)N4c3ccncc3F)c2c1 [Example 76, 1-((1R,5S)-8-(3-fluoropyridin-4-yl)-3,8-diazabicyclo[3.2.1]octan-3-yl)-3-((3-methoxyquinolin-5-yl)methoxy)propan-1-one]
- IC50 (human M1 receptor): < 100 nM
- IC50 (M3): 1000 to 10000 nM
- IC50 (M2; [1]): 1000 to 10000 nM

SMILES: N#Cc1ccc(N2C3CCC2CN(C(=O)COCc2cccn4ncnc24)C3)nc1 [Example 184, 6-{3-[2-({[1,2,4]triazolo[1,5-a]pyridin-8-yl}methoxy)acetyl]-3,8-diazabicyclo[3.2.1]octan-8-yl}pyridine-3-carbonitrile]
- IC50 (human M1 receptor): < 100 nM
- IC50 (M3): > 10000 nM
- IC50 (M2; [1]): > 10000 nM

SMILES: Cc1cc(F)cnc1N1CCN(C(=O)CCCc2cccc3ncccc23)CC1 [Example 55, 1-(4-(5-fluoro-3-methylpyridin-2-yl)piperazin-1-yl)-4-(quinolin-5-yl)butan-1-one]
- IC50 (human M1 receptor; [2]): < 100 nM
- IC50 (M3): 1000 to 10000 nM
- IC50 (M2; [1]): 100 to 1000 nM

SMILES: O=C(CCCc1cccc2ncccc12)N1CCN(c2ccncc2F)CC1 [Example 67, 1-(4-(3-fluoropyridin-4-yl)piperazin-1-yl)-4-(quinolin-5-yl)butan-1-one]
- IC50 (human M1 receptor; [2]): 100 to 1000 nM
- IC50 (M3): 1000 to 10000 nM
- IC50 (M2; [1]): > 10000 nM

SMILES: O=C(CNCCc1cccn2nccc12)N1C[C@H]2CC[C@@H](C1)N2c1ccncc1F [Example 118, 1-((1R,5S)-8-(3-fluoropyridin-4-yl)-3,8-diazabicyclo[3.2.1]octan-3-yl)-2-((2-(pyrazolo[1,5-a]pyridin-4-yl)ethyl)amino)ethan-1-one]
- IC50 (human M1 receptor; [2]): 1000 to 10000 nM
- IC50 (M3): > 10000 nM
- IC50 (M2; [1]): > 10000 nM

SMILES: COc1cc(N2CCN(C(=O)CCCc3cccc4ncccc34)CC2)ccn1 [Example 69, 1-(4-(2-methoxypyridin-4-yl)piperazin-1-yl)-4-(quinolin-5-yl)butan-1-one]
- IC50 (human M1 receptor; [2]): 100 to 1000 nM
- IC50 (M3): 1000 to 10000 nM
- IC50 (M2; [1]): > 10000 nM

SMILES: O=C(CCS(=O)(=O)c1cccc2ncsc12)N1CCN(c2ccncc2F)CC1 [Example 16, 3-(benzo[d]thiazol-7-ylsulfonyl)-1-(4-(3-fluoropyridin-4-yl)piperazin-1-yl)propan-1-one]
- IC50 (human M1 receptor; [2]): 100 to 1000 nM
- IC50 (M3): > 10000 nM
- IC50 (M2; [1]): 1000 to 10000 nM

SMILES: N#Cc1ccc(N2C3CCC2CN(C(=O)CCOCc2cccn4ncnc24)C3)nc1 [Example 42, 6-{3-[3-({[1,2,4]triazolo[1,5-a]pyridin-8-yl}methoxy)propanoyl]-3,8-diazabicyclo[3.2.1]octan-8-yl}pyridine-3-carbonitrile]
- IC50 (human M1 receptor): < 100 nM
- IC50 (M3): 1000 to 10000 nM
- IC50 (M2; [1]): 1000 to 10000 nM

SMILES: COc1cnc2cccc(CCOCC(=O)N3CC4CCC(C3)N4c3ccc(C#N)cn3)c2c1 [Example 181, 6-(3-{2-[2-(3-methoxyquinolin-5-yl)ethoxy]acetyl}-3,8-diazabicyclo[3.2.1]octan-8-yl)pyridine-3-carbonitrile]
- IC50 (human M1 receptor): < 100 nM
- IC50 (M3): 1000 to 10000 nM
- IC50 (M2; [1]): 1000 to 10000 nM

SMILES: N#Cc1ccc(C2CC3CCC2CN3C(=O)CCS(=O)(=O)c2cccc3ncsc23)nc1 (stereo not drawn) [Example 28, 6-[2-[3-(1,3-benzothiazole-7-sulfonyl)propanoyl]-2-azabicyclo[2.2.2]octan-5-yl]pyridine-3-carbonitrile]
- IC50 (human M1 receptor; [2]): < 100 nM
- IC50 (M3): 1000 to 10000 nM
- IC50 (M2; [1]): 100 to 1000 nM

SMILES: O=C(CCNCc1cccc2ncsc12)N1C[C@H]2CC[C@@H](C1)N2c1ccncc1F [Example 8, 3-((benzo[d]thiazol-7-ylmethyl)amino)-1-((1R,5S)-8-(3-fluoropyridin-4-yl)-3,8-diazabicyclo[3.2.1]octan-3-yl)propan-1-one]
- IC50 (human M1 receptor): < 100 nM
- IC50 (M3): 1000 to 10000 nM
- IC50 (M2; [1]): 1000 to 10000 nM

SMILES: C[C@@H]1CN(c2ccncc2Cl)CCN1C(=O)CCCc1cccc2ncccc12 [Example 77, (R)-1-(4-(3-chloropyridin-4-yl)-2-methylpiperazin-1-yl)-4-(quinolin-5-yl)butan-1-one]
- IC50 (human M1 receptor; [2]): < 100 nM
- IC50 (M3): 1000 to 10000 nM
- IC50 (M2; [1]): 1000 to 10000 nM

SMILES: C[C@H]1CN(c2ncc(F)cc2F)CCN1C(=O)CCCc1cccc2ncccc12 [Example 91, (S)-1-(4-(3,5-difluoropyridin-2-yl)-2-methylpiperazin-1-yl)-4-(quinolin-5-yl)butan-1-one]
- IC50 (human M1 receptor; [2]): 100 to 1000 nM
- IC50 (M3): 1000 to 10000 nM
- IC50 (M2; [1]): 1000 to 10000 nM

SMILES: Cc1cc(C#N)ncc1N1CCN(C(=O)CCS(=O)(=O)c2cccc3nccn23)[C@@H](C)C1 [Example 144, 5-[(3S)-4-(3-{imidazo[1,2-a]pyridine-5-sulfonyl}propanoyl)-3-methylpiperazin-1-yl]-4-methylpyridine-2-carbonitrile]
- IC50 (human M1 receptor; [2]): < 100 nM
- IC50 (M3): > 10000 nM
- IC50 (M2; [1]): > 10000 nM

SMILES: N#Cc1ccc(-c2ccc(N3C4CCC3CN(C(=O)CCNCc3cccc5ncnn35)C4)cc2)nc1 [Example 175, 6-[4-(3-{3-[({[1,2,4]triazolo[1,5-a]pyridin-5-yl}methyl)amino]propanoyl}-3,8-diazabicyclo[3.2.1]octan-8-yl)phenyl]pyridine-3-carbonitrile]
- IC50 (human M1 receptor): 100 to 1000 nM
- IC50 (M3): > 10000 nM
- IC50 (M2; [1]): 1000 to 10000 nM

SMILES: C[C@H]1CN(c2c[nH]c(=O)cc2Cl)CCN1C(=O)CCS(=O)(=O)c1cccc2ncsc12 [Example 26, 5-[(3S)-4-[3-(1,3-benzothiazole-7-sulfonyl)propanoyl]-3-methylpiperazin-1-yl]-4-chloro-1,2-dihydropyridin-2-one]
- IC50 (human M1 receptor; [2]): 100 to 1000 nM
- IC50 (M3): > 10000 nM
- IC50 (M2; [1]): > 10000 nM

From patent US11512090B2, “Muscarinic acetylcholine M1 receptor antagonists” (PIPELINE THERAPEUTICS, INC., priority 2018, dated 2022)
